# Source: patent US20210379147A1, “METHOD AND SYSTEM FOR TREATING CANCER UTILIZING TINAGL1” (The Trustees of Princeton University, priority 2018, published 2021)
# B1: full length recombinant human Tinagl1 with 6xHis tag at the C-terminus (r-Tinagl1) (other)
# chain: AQQGRGRRELAPGLHLRGIRDAGGRYCQEQDLCCRGRADDCALPYLGAICYCDLFCNRTVSDCCPDFWDFCLGVPPPFPPIQGCMHGGRIYPVLGTYWDNCNRCTCQENRQWQCDQEPCLVDPDMIKAINQGNYGWQAGNHSAFWGMTLDEGIRYRLGTIRPSSSVMNMHEIYTVLNPGEVLPTAFEASEKWPNLIHEPLDQGNCAGSWAFSTAAVASDRVSIHSLGHMTPVLSPQNLLSCDTHQQQGCRGGRLDGAWWFLRRRGVVSDHCYPFSGRERDEAGPAPPCMMHSRAMGRGKRQATAHCPNSYVNNNDIYQVTPVYRLGSNDKEIMKELMENGPVQALMEVHEDFFLYKGGIYSHTPVSLGRPERYRRHGTHSVKITGWGEETLPDGRTLKYWTAANSWGPAWGERGHFRIVRGVNECDIESFVLGVWGRVGMEDMGHHVDHHHHHH
# notes: also called r-Tiangl1; recombinant Tinagl1 protein
# B2: C-terminal HA tagged Tinagl1 (Tinagl1-HA) (other)
# chain: AQQGRGRRELAPGLHLRGIRDAGGRYCQEQDLCCRGRADDCALPYLGAICYCDLFCNRTVSDCCPDFWDFCLGVPPPFPPIQGCMHGGRIYPVLGTYWDNCNRCTCQENRQWQCDQEPCLVDPDMIKAINQGNYGWQAGNHSAFWGMTLDEGIRYRLGTIRPSSSVMNMHEIYTVLNPGEVLPTAFEASEKWPNLIHEPLDQGNCAGSWAFSTAAVASDRVSIHSLGHMTPVLSPQNLLSCDTHQQQGCRGGRLDGAWWFLRRRGVVSDHCYPFSGRERDEAGPAPPCMMHSRAMGRGKRQATAHCPNSYVNNNDIYQVTPVYRLGSNDKEIMKELMENGPVQALMEVHEDFFLYKGGIYSHTPVSLGRPERYRRHGTHSVKITGWGEETLPDGRTLKYWTAANSWGPAWGERGHFRIVRGVNECDIESFVLGVWGRVGMEDMGHH
# notes: Expressed in LM2 or HEK293T cells; assayed in cell lysate mixed with concentrated culture media; also called Tiangl1-HA; not shown: human influenza hemagglutinin (HA) tag fused to the C-terminal
# Tests used:
# LM2 cells = experiment: LM2 orthotopic tumors, single or combined agent treatment; assay type: in vivo, NSG female mice; conditions: for spontaneous lung metastasis: LM2 tumors, ex vivo BLI at endpoint
# Procedure: FIG. 17A is an image of WB analyses where NSG female mice were injected with 10^4 LM2 cells by MFP injection, and intravenously treated with the indicated reagents twice per week when tumors reached to 2 mm in dimeter, then after 5 weeks of the treatments, the primary tumors of each group were collected and activation of EGFR and FAK in primary tumor of each group were tested by WB.
# FIG. 17B is a graph illustrating tumor volumes of each treatment group from FIG. 17A.
# FIG. 17C is a graph, quantifying ex vivo BLI results where lungs in mice from FIG. 17A were collected and spontaneous metastasis was examined at the endpoint.
# Two molecular targeting reagents, ATN-161 (ATN) and Erlotinib (Erlo) were employed. ATN is an integrin α5β1 antagonist that inhibits the integrin signaling pathway and slows tumor progression. Erlotinib is a well-established small molecular inhibitor of EGFR and is clinically approved for cancer treatment. Mice orthotopically implanted with LM2 cells were split into 6 groups after the tumors reached 2 mm in diameter and subjected to various single or combined agent treatments twice per week [(1) PBS; (2) ATN 30 μg/mouse; (3) Erlo 100 mg/kg; (4) r-Tinagl1 30 μg/mouse; (5) ATN and Erlo; and (6) ATN, Erlo, and r-Tinagl1]. Referring to FIG. 17A, the inhibition of integrin/FAK and EGFR upon each treatment was validated by western blotting and TIC staining.
# (§1) For xenograft studies, 8-weeks immunocompromised NOD Scid Gamma (NSG) or immunocompetent FVB females were used. Cells were suspended in 10 μl of PBS for mammary gland injection (MFP), or were suspended in 100 μl of PBS for intravenous injection. For human patient-derived xenograft (PDX, HCL001, kindly provided by Dr. Alana Welm) study, we followed the standard protocol for PDX transplantation, maintenance and digestion of the tumors (DeRose et al., 2011). 2×10^4 cells were suspended in 10 μl of PBS and subjected to MFP injection. For recombinant Tinagl1 (r-Tinagl1), ATN-161, Erlotinib treatments, the mice were injected with 30 μg/mouse, 30 μg/mouse, and 100 mg/kg respectively twice per week via tail-vein. Primary tumors were quantified once per week via caliper measurement. All cell lines used for lung metastasis experiments were stably labeled with a firefly luciferase expressing vector and were monitored by weekly bioluminescent imaging (BLI). At protocol-defined endpoints, lungs were dissected and fixed in bouin's solution and the metastatic lesions were counted.
# SUM159-M1a = SUM159-M1a orthotopic tumors, single or combined agent treatment; assay type: in vivo, NSG female mice; conditions: SUM159-M1a model
# Procedure: FIG. 17D is an image of WB analyses where NSG female mice were injected with 10^4 M1a cells by MFP injection, and treated with the indicated reagents twice per week when tumors reached to 2 mm in diameter, then after 5 weeks of the treatments, the primary tumors of each group were collected and activation of EGFR and FAK in primary tumor of each group was tested by WB.
# FIG. 17E is a graph illustrating tumor volumes of each treatment group from FIG. 17D.
# as §1, with “For recombinant Tinagl1 (r-Tinagl1), ATN-161, Erlotinib treatments, the mice were injected with 30 μg/mouse, 30 μg/mouse, and 100 mg/kg respectively twice per week via tail-vein.” left out
# [1] = system: primary tumors and lung metastases; experiment: IHC staining of tumor samples from treatment groups (Ki67, Casp3, CD31, α-SMA); assay type: in vivo, NSG female mice; conditions: for tumor cell proliferation (Ki67 staining): primary tumor and lung metastatic nodules
# Procedure: FIGS. 17F-17I are graphs quantifying positives cells per field where primary tumors were collected from indicated treatment groups from FIG. 17D and then subjected to IHC staining with indicated antibodies, including % Ki67^+ (17F), % Casp3^+ (17G), % CD31^+ (17H), and % α-SMA^+ (17I).
# TIC staining was performed as previously described (Wan et al., 2014). Briefly, Paraffin-embedded primary tumor or lung samples were sliced into 4 μm thickness. The slides were baked overnight at 60° C. Next, the tissue slides were washed with PBS after deparaffinization and hydration and then boiled in citrate buffer at 100° C. for 40 min. After treated with 3% H2O2 for 30 min to block endogenous peroxidase, slides were incubated at 4° C. overnight with Ki67 (Leica Biosystem, Ki67-MM1-L-CE-S), cleaved caspase-3 (Cell signaling, 9661S), p-EGFR (Cell signaling, 3777), p-FAK (Cell signaling, 8556), CD31 (Cell signaling, 77699), -SMA (Sigma, A5228), or Tinagl1 (Sigma, HPA048695) antibodies. Following washes with PBS, slides were then incubated with HRP-conjugated goat anti-rabbit or mouse secondary antibody (Genetech) for 30 min at room temperature. Sections were stained by DAB and then counterstained with Gill hematoxylin according to manufacturer's instructions.
# human EGFR-GFP = target: T1, human EGFR-GFP (human, UniProt P00533 25-1210); experiment: competition co-IP in lysate of HEK293T cells co-expressing Tinagl1-HA and GFP-EGFR; competitor of Tinagl1-HA
# T1 construct: Printed both as GFP-EGFR and EGFR-GFP; the order of the two pieces is not certain; Expressed in HEK293T or LM2 cells, assayed in lysate; also called GFP-EGFR; not shown: GFP
# [2] = target: T2, mutant integrin β1 subunit (β1-M) with deletion of aa 130-240 (human, UniProt P05556 21-798); experiment: IP and WB from HEK293T cells overexpressing β1-M and Tinagl1-HA
# T2 construct: Overexpressed in HEK293T cells, assayed in lysate; said to be still localized to the cell surface; also called β1-mutant; integrin subunit β1-Δ130-240aa
# T2 sequence (P05556 other isoform, or with tags, fused parts or gaps mutant): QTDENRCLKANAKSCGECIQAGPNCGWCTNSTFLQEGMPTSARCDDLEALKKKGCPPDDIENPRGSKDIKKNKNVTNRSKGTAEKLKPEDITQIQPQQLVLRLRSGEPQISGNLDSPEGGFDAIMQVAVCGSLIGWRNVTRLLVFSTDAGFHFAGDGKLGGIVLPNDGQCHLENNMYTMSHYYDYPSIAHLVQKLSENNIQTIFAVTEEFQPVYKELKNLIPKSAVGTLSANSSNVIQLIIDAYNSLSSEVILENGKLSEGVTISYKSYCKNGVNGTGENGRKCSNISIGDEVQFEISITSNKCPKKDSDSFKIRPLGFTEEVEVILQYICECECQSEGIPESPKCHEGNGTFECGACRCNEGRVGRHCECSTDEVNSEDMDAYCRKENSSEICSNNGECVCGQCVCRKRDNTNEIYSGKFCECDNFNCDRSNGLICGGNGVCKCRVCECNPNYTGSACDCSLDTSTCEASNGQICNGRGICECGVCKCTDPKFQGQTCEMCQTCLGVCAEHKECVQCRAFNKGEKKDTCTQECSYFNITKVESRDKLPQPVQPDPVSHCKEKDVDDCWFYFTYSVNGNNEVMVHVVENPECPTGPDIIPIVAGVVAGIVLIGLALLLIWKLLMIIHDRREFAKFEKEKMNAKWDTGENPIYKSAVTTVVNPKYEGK
# Procedure: Immunoprecipitation (IP) and western blotting (WB) analysis. For an IP experiment, cells were collected in 1.5 ml EP tube when they reached to 100% confluency in 10 or 15 cm dish as indicated. […] Meanwhile, culture media was 100× concentrated and mixed with the cell lysates. The samples were centrifuged, 100 μl of the supernatant was transferred to a new tube as input, and the rest was incubated with 2 μg of IgG, anti-HA, anti-Myc, anti-Integrin subunit β1, anti-Integrin subunit α5 or anti-EGFR (as indicated in each experiment) overnight at 4° C. (recombinant proteins may be added at this step as indicated in each experiment). […] The beads were then washed for 5 times with IP lysis buffer. After final spin, the beads were boiled with 50 μl of 1×SDS Laemmli buffer for 5 min, and the samples were subjected to western blotting (WB). […] 100 μl of combined solution was transferred to a new tube and served as input. The rest was split into two tubes and IP with 2 μg of IgG or His antibody respectively. The IP samples were washed with PBS and analyzed with WB.
molecule,measurement,setting,value
C#Cc1cccc(Nc2ncnc3cc(OCCOC)c(OCCOC)cc23)c1 [Erlotinib],primary tumor growth,"LM2 cells; LM2, twice per week, ATN 30 μg/mouse, Erlo 100 mg/kg, r-Tinagl1 30 μg/mouse",trended toward reducing primary tumor growth but did not reach statistical significance
same,spontaneous lung metastasis,LM2 cells,reduced spontaneous lung metastasis
same,lung metastasis,SUM159-M1a,reduced lung metastasis
same,CD31+ endothelium,[1]; primary and lung metastasis,significantly reduced
same,tumor cell proliferation (Ki67 staining),[1],inhibited tumor cell proliferation in lung metastatic nodules but not primary sites
ATN-161,spontaneous lung metastasis,LM2 cells,no reduction was observed
same,tumor cell proliferation (Ki67 staining),[1],suppressed proliferation in primary tumor but not lung metastatic nodules
B1,binding result,human EGFR-GFP,binds
B2,binding result,[2],no binding
